19 compounds from US20250388574A1, “HETEROCYCLIC COMPOUNDS AS TRIGGERING RECEPTOR EXPRESSED ON MYELOID CELLS 2 AGONISTS AND METHODS OF USE” (AMGEN INC., priority 2020, published 2025) can be followed below.

In the experiment the target is hTREM2 (Homo sapiens, UniProt Q9NZC2). The experiment can be described thus: Phospho-Syk AlphaScreen/AlphaLISA assay in TREM2 and DAP12 overexpressing HEK293 cells (Example A1). Format: cell-based. Also noted: expressed in transfected cells. Conditions: HEK293 cells; for EC50: read-out: hTREM2 EC50. Put shortly:
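Single-cell-cloned HEK293 stably overexpressing TREM2 and DAP12, plated 20,000 cells/well for 20 h, then exposed to compounds (1% DMSO) 45 min at room temperature. Lysates probed for phospho-Syk by AlphaLISA sandwich (anti-pSyk, biotinylated anti-Syk); signal normalized to percent of control (100 nM anti-TREM2 antibody vs isotype) and fitted by 4-parameter logistic.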
A general note: In Alpha technology, singlet oxygen from a donor bead excites a nearby acceptor bead.

Sequence of hTREM2 (Q9NZC2 19-230): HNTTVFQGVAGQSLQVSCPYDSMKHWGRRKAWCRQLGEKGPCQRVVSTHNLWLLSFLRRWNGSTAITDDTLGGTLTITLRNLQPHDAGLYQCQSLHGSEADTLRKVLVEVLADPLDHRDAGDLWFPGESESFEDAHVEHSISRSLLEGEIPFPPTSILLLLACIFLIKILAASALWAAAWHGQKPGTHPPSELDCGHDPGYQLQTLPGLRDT
Sequence of hTREM2 (O43914 22-113 partner): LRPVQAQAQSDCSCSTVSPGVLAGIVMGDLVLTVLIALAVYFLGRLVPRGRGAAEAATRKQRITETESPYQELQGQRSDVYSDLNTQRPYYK

Take `Cc1nc2cc(N3CCO[C@H](c4cnn(C)c4)C3)nc(-c3ccc(Cl)cc3F)c2c(=O)n1C` [Example 189, (R)-5-(4-chloro-2-fluorophenyl)-2,3-dimethyl-7-(2-(1-methyl-1H-pyrazol-4-yl)morpholino)pyrido[4,3-d]pyrimidin-4(3H)-one]: the Emax result is reported as “++++ (Emax>300)” and the EC50 – broadly, the concentration that produces a half-maximal response – lay within 0.05 to 0.5 µM.
Turning to `CCCn1c(C)nc2cc(N3CCO[C@H](c4ccccc4)C3)nc(-c3ccc(Cl)cc3F)c2c1=O` [Example 190, (R)-5-(4-chloro-2-fluorophenyl)-2-methyl-7-(2-phenylmorpholino)-3-propylpyrido[4,3-d]pyrimidin-4(3H)-one], the Emax result was “+++ (Emax>200 and ≤300)”; the EC50 is 0.5 to 3 µM.
As for `CCCn1c(C)nc2cc(N3CCO[C@H](C(F)F)C3)nc(-c3ccc(Cl)cc3F)c2c1=O` [Example 191, (S)-5-(4-chloro-2-fluorophenyl)-7-(2-(difluoromethyl)morpholino)-2-methyl-3-propylpyrido[4,3-d]pyrimidin-4(3H)-one], the Emax entry is reported as “++++ (Emax>300)” and the half-maximal effective concentration (EC50) fell in the range of 0.5 to 3 µM.
For the compound `CCCn1c(C)nc2cc(N3CCO[C@@H](CF)C3)nc(-c3ccc(Cl)cc3F)c2c1=O` [Example 192, (R)-5-(4-chloro-2-fluorophenyl)-7-(2-(fluoromethyl)morpholino)-2-methyl-3-propylpyrido[4,3-d]pyrimidin-4(3H)-one], the Emax entry is on record as “++++ (Emax>300)” and the EC50 lay in the range of 0.5 to 3 µM.
As to `CCCn1c(C)nc2cc(N3CCO[C@H](CF)C3)nc(-c3ccc(Cl)cc3F)c2c1=O` [Example 193, (S)-5-(4-chloro-2-fluorophenyl)-7-(2-(fluoromethyl)morpholino)-2-methyl-3-propylpyrido[4,3-d]pyrimidin-4(3H)-one], the Emax result was “+++ (Emax>200 and ≤300)”; the concentration giving a half-maximal response (EC50) was in the range of 0.5 to 3 µM.
Turning to `Cc1nc2cc(N3CCO[C@H](C4CC4)C3)nc(-c3ccc(Cl)cc3F)c2c(=O)n1C` [Example 194, (R)-5-(4-chloro-2-fluorophenyl)-7-(2-cyclopropylmorpholino)-2,3-dimethylpyrido[4,3-d]pyrimidin-4(3H)-one], the Emax result is “+++ (Emax>200 and ≤300)”; the 50% effective concentration (EC50) was in the range of 3 to 100 µM.
In the case of `CCCn1c(C)nc2cc(N3CCO[C@H](c4cnn(C)c4)C3)nc(-c3ncc(Cl)cc3C)c2c1=O` [Example 195, (R)-5-(5-chloro-3-methylpyridin-2-yl)-2-methyl-7-(2-(1-methyl-1H-pyrazol-4-yl)morpholino)-3-propylpyrido[4,3-d]pyrimidin-4(3H)-one], the Emax entry is “+ (Emax>45 and ≤100)”; the EC50 lay in the range of 3 to 100 µM.
`Cc1nc2cc(N3CCO[C@H](c4cnn(C)c4)C3)nc(-c3ncc(Cl)cc3F)c2c(=O)n1C` [Example 196, (R)-5-(5-chloro-3-fluoropyridin-2-yl)-2,3-dimethyl-7-(2-(1-methyl-1H-pyrazol-4-yl)morpholino)pyrido[4,3-d]pyrimidin-4(3H)-one]: the Emax result is on record as “++++ (Emax>300)” and the EC50 was 0.5 to 3 µM.
`CCn1cc([C@@H]2CN(c3cc4nc(C)n(C)c(=O)c4c(-c4ccc(Cl)cc4F)n3)CCO2)cn1` [Example 197, (R)-5-(4-chloro-2-fluorophenyl)-7-(2-(1-ethyl-1H-pyrazol-4-yl)morpholino)-2,3-dimethylpyrido[4,3-d]pyrimidin-4(3H)-one]: the Emax entry was “++++ (Emax>300)” and the EC50 was in the range of 0.05 to 0.5 µM.
In the case of `Cc1nc2cc(N3CCO[C@H](c4nccs4)C3)nc(-c3ccc(Cl)cc3F)c2c(=O)n1C` [Example 198, (S)-5-(4-chloro-2-fluorophenyl)-2,3-dimethyl-7-(2-(thiazol-2-yl)morpholino)pyrido[4,3-d]pyrimidin-4(3H)-one], the Emax result is on record as “++++ (Emax>300)” and the EC50 was in the range of 0.5 to 3 µM.
With `Cc1nc([C@@H]2CN(c3cc4nc(C)n(C)c(=O)c4c(-c4ccc(Cl)cc4F)n3)CCO2)no1` [Example 200, (S)-5-(4-chloro-2-fluorophenyl)-2,3-dimethyl-7-(2-(5-methyl-1,2,4-oxadiazol-3-yl)morpholino)pyrido[4,3-d]pyrimidin-4(3H)-one], the Emax entry was “++++ (Emax>300)” and the EC50 lay within 0.05 to 0.5 µM.
In the case of `Cc1nc2cc(N3CCO[C@H](c4noc(C5CC5)n4)C3)nc(-c3ccc(Cl)cc3F)c2c(=O)n1C` [Example 201, (S)-5-(4-chloro-2-fluorophenyl)-7-(2-(5-cyclopropyl-1,2,4-oxadiazol-3-yl)morpholino)-2,3-dimethylpyrido[4,3-d]pyrimidin-4(3H)-one], the Emax entry was “++++ (Emax>300)” and the EC50 was 0.05 to 0.5 µM.
In the case of `Cc1nc2cc(N3CC[C@H](c4cnn(C)c4)C3)nc(-c3ccc(Cl)cc3F)c2c(=O)n1C` [Example 202, (R)-5-(4-chloro-2-fluorophenyl)-2,3-dimethyl-7-(3-(1-methyl-1H-pyrazol-4-yl)pyrrolidin-1-yl)pyrido[4,3-d]pyrimidin-4(3H)-one], the Emax result is “+++ (Emax>200 and ≤300)”; the half-maximal effective concentration (EC50) was in the range of 3 to 100 µM.
On to `Cc1nc2cc(N3CC[C@H](n4cccn4)C3)nc(-c3ccc(Cl)cc3F)c2c(=O)n1C` [Example 203, (S)-7-(3-(1H-pyrazol-1-yl)pyrrolidin-1-yl)-5-(4-chloro-2-fluorophenyl)-2,3-dimethylpyrido[4,3-d]pyrimidin-4(3H)-one], for which the Emax result was “+ (Emax>45 and ≤100)”; the EC50 fell in the range of 3 to 100 µM.
With `Cc1cnn([C@H]2CCN(c3cc4nc(C)n(C)c(=O)c4c(-c4ccc(Cl)cc4F)n3)C2)c1` [Example 204, (S)-5-(4-chloro-2-fluorophenyl)-2,3-dimethyl-7-(3-(4-methyl-1H-pyrazol-1-yl)pyrrolidin-1-yl)pyrido[4,3-d]pyrimidin-4(3H)-one], the Emax result is “+ (Emax>45 and ≤100)”; the EC50 lay in the range of 3 to 100 µM.
Consider `Cc1nc2cc(N3CC[C@H](c4ccccn4)C3)nc(-c3ccc(Cl)cc3F)c2c(=O)n1C` [Example 205, (S)-5-(4-chloro-2-fluorophenyl)-2,3-dimethyl-7-(3-(pyridin-2-yl)pyrrolidin-1-yl)pyrido[4,3-d]pyrimidin-4(3H)-one], for which the Emax entry is “+++ (Emax>200 and ≤300)”; the EC50 lay within 3 to 100 µM.
Take `Cc1nc2cc(N3CC[C@H](c4ccccc4)C3)nc(-c3ccc(Cl)cc3F)c2c(=O)n1C` [Example 206, (R)-5-(4-chloro-2-fluorophenyl)-2,3-dimethyl-7-(3-phenylpyrrolidin-1-yl)pyrido[4,3-d]pyrimidin-4(3H)-one]: the Emax entry is “++ (Emax>100 and ≤200)”; the EC50 was 3 to 100 µM.
For `Cc1nc2cc(N3CC[C@H](C4CC4)C3)nc(-c3ccc(Cl)cc3F)c2c(=O)n1C` [Example 207, (R)-5-(4-chloro-2-fluorophenyl)-7-(3-cyclopropylpyrrolidin-1-yl)-2,3-dimethylpyrido[4,3-d]pyrimidin-4(3H)-one], the Emax result was “++ (Emax>100 and ≤200)”; the EC50 was in the range of 3 to 100 µM.
As to `Cc1nc2cc(N3CC[C@H](N4CCOCC4)C3)nc(-c3ccc(Cl)cc3F)c2c(=O)n1C` [Example 208, (S)-5-(4-chloro-2-fluorophenyl)-2,3-dimethyl-7-(3-morpholinopyrrolidin-1-yl)pyrido[4,3-d]pyrimidin-4(3H)-one], the Emax result was “++ (Emax>100 and ≤200)”; the EC50 was 3 to 100 µM.
